The values that follow come from US20250204541A1, “GAS PHASE TREATMENT OF PRODUCE” (priority 2022, published 2025).

Assay [1] has as its system Colletotrichum gloeosporioides (Cg). Nature of the assay: Antifungal activity of vapor against Colletotrichum gloeosporioides in avocados. The class given is in vivo. Particulars: Example 22, 30 minutes vapor of 62.5-500 μL on filter paper disc, assessed on day 5.
Assay [2] deals with Botrytis cinerea (Bc). Nature of the assay: Antifungal activity of AITC vapor against Botrytis cinerea in strawberries. In kind it is in vivo. Conditions: for strawberries infected: Example 14, ambient temperature, day 6. As to the method: Example 13. The antifungal activity of AITC vapor against Bc in strawberries was tested. All samples were wounded by making a 3 mm deep puncture in the skin. Samples were infected by dispensing 1000 Bc spores suspended in 10 μL of water in the wound. Samples were then incubated at ambient temperature, imaged, and assessed for mold over the following 3 days. The test group consisted of strawberries that were: uninfected and untreated; infected and untreated; and exposed for 30 minutes to the vapor of 125 μL AITC dispensed on Whatman filter paper. […] The infection rates in the initially uninfected sample indicate that the step involving the initial infection of the wound by dispensing the Bc spores may not be necessary to promote infection in the test groups.
Example 14. The antifungal activity of a range of AITC vapor concentrations against Bc in strawberries was tested. Samples were treated by exposure for 30 minutes to the vapor of a range of volumes of AITC disposed on a filter paper disc, then incubated at ambient temperature, imaged, and assessed for mold over the following 6 days. Test groups consisted of strawberries that were untreated and strawberries exposed to the vapor of 62.5 μL, 125 μL, 250 μL, and 500 μL of AITC. […] On day 6, 83% of the untreated control strawberries were infected, 100% of the 62.5 μL AITC dose strawberries were infected, 13% of the 125 μL AITC dose strawberries were infected, and 0% of the 250 and 500 μL AITC dose strawberries were infected. For strawberries incubated at room temperature, all of the AITC doses above 62.5 μL were effective at preventing mold, with doses above 125 μL substantially eliminating mold.
Example 15. The antifungal activity of AITC vapor under different exposure conditions against Bc in strawberries was tested. Test groups consisted of strawberries that were untreated and treated by exposure for 30 minutes to the vapor of 125 μL of AITC disposed on a filter paper disc. Test groups were then incubated in either open or closed containers at 4° C., imaged, and assessed for mold over the following 14 days. […] All samples were free of mold through 7 days. On day 12, 16.7% of the open air controls were infected, 29.2% of closed container controls were infected, and 0% of the AITC treated were infected. On day 14, 33.3% of the open air controls were infected, 41.7% of closed container controls were infected, 0% of the open air AITC treated were infected, and 4.2% of the closed container AITC treated were infected. For strawberries incubated at 4° C., AITC treatment was effective in reducing the incidence of mold over a two week period. While ⅓ of the open air untreated samples were infected, none of the open air AITC-treated were infected. Over 40% of the closed container controls were infected. A single strawberry was infected in the closed container AITC-treated test group.
Example 16. The antifungal activity of AITC vapor against Bc in strawberries treated with a coating agent (95 wt % glyceryl monostearate and 5 wt % sodium stearate) and exposed to vapor in clamshells was tested. Test groups consisted of strawberries that were: untreated; dipped in 40 g/L solution of the coating agent; exposed for 30 minutes to the vapor of 125 μL of AITC disposed on a filter paper disc; and dipped in 40 g/L solution of the coating agent and exposed for 30 minutes to the vapor of 125 μL of AITC disposed on a filter paper disc. Samples were treated, incubated at ambient temperature, imaged, and assessed for mold over the following 4 days. […] On day 3, 52.8% of the controls were infected, 42.1% of the coating agent were infected, 26.3% of the AITC were infected, and 9.3% of the coating agent+AITC were infected. On day 4, 88.9% of the controls were infected, 76.3% of the coating agent were infected, 71% of the AITC were infected, and 34.9% of the coating agent+AITC were infected. […] Bowl dipping in the coating solution also presented challenges for drying around the calyx.
Example 17. […]

The structures appear in SMILES notation.

Regarding `C=CCN=C=S` [AITC, allyl isothiocyanate], the “incidence of Cg mold” value in assay [1] is “reduced the incidence of Cg mold compared to the untreated samples, the samples treated with coating agent, and the prochloraz treated sample”. Also, in assay [2] (Example 13, strawberries, 30 minutes vapor of 125 μL, after 24 hours), the “samples showing visible mold” value is recorded as “no mold was visible”. Besides, the “fraction of samples showing visible mold” value is reported as “⅛” in assay [2] (Example 13, strawberries, 30 minutes vapor of 125 μL, after 48 hours) and “¼” in assay [2] (Example 13, strawberries, 30 minutes vapor of 125 μL, after 72 hours). For the same compound, the strawberries infected in assay [2] (62.5 μL dose, 30 minutes) turned out to be 100%; in assay [2] (125 μL dose, 30 minutes), 13%; in assay [2] (250 μL dose, 30 minutes) it was 0%; in assay [2] (500 μL dose, 30 minutes), 0%. Moreover, the infected in assay [2] (Example 15, strawberries, 125 μL, 30 minutes, 4° C., closed container, day 14) was 4.2%; in assay [2] (Example 15, strawberries, 125 μL, 30 minutes, 4° C., open air, day 14), 0%; in assay [2] (Example 15, strawberries, 125 μL, 30 minutes, 4° C., open or closed containers, day 12), 0%; in assay [2] (Example 16, strawberries in clamshells, coating agent 40 g/L dip, AITC 125 μL 30 minutes, ambient, day 3), 26.3%; in assay [2] (Example 16, strawberries in clamshells, coating agent 40 g/L dip, AITC 125 μL 30 minutes, ambient, day 4), 71%. Also, in assay [2] (Example 15, strawberries, 125 μL, 30 minutes, incubated at 4° C., through 7 days), the “mold” value is “free of mold”.
